Data set [1] is described as follows: Unbound fraction in psychotic patient (9 patients) at 3.5 +/- 1.2 mg, iv by reversed phase HPLC method. Type of data set: ADME, organism-based. The note with it: human, in vivo.
Data set [2] can be described thus: Terminal half life in psychotic patient (9 patients) at 3.5 +/- 1.2 mg, iv by reversed phase HPLC method. Type of data set: ADME, organism-based. The conditions noted are these: human, in vivo, 3.5 mg, read-out: beta t1/2 (converted).
A short description of data set [3]: Volume of distribution at steady state in psychotic patient (9 patients) at 3.5 +/- 1.2 mg, iv by reversed phase HPLC method. Type of data set: ADME, organism-based. The note with it: human, in vivo, 3.5 mg, read-out: Vdss.
The next data set deals with Plasma. Put plainly: Plasma concentration in psychotic patient. It counts as ADME. The note with it: human.
The nature of data set [4]: Unbound fraction in human serum. Type of data set: ADME, cell-free.
The nature of data set [5]: Terminal phase volume of distribution at steady state in psychotic patient (9 patients) at 3.5 +/- 1.2 mg, iv by reversed phase HPLC method based model-dependent approach analysis. Type of data set: ADME, organism-based. The note with it: human, in vivo, 3.5 mg, read-out: Vbeta.
Data set [6] is described as follows: Terminal phase volume of distribution at steady state in psychotic patient (9 patients) at 3.5 +/- 1.2 mg, iv by reversed phase HPLC method based model-independent approach analysis. It counts as ADME, organism-based. The note with it: human, in vivo, 3.5 mg, read-out: Vbeta.
Data set [7] is described as follows: Terminal phase volume of distribution at steady state in psychotic patient (9 patients) at 3.5 +/- 1.2 mg, iv by reversed phase HPLC method. The note with it: human, in vivo, 3.5 mg, read-out: Vbeta. Type of data set: ADME, organism-based.
Data set [8] is described as follows: Terminal half life in psychotic patient (9 patients) at 2.9 +/- 1.2 mg, po by reversed phase HPLC method. It counts as ADME, organism-based. The note with it: human, in vivo, 2.9 mg, read-out: beta t1/2 (converted).

The source of these data is ChEMBL document CHEMBL3784949 (Psychopharmacology (Berl), 1987).

As to `O=C(CCCN1CCC(O)(c2ccc(Cl)cc2)CC1)c1ccc(F)cc1` [HALOPERIDOL], the Fu in data set [1] was found to be 0.6%. For the same compound, the results for the half-life in [2] and in [8] were 18.8 h and 18.1 h, respectively. For the same compound, the Vd in data set [3] is 7.9 L/kg; in [5] it was 9.6 L/kg; in data set [6], 9.5 L/kg; in data set [7], 9.5 L/kg. Also, the Cp in the data set with Plasma is 5 ng/mL. Further, the fraction unbound in data set [4] is 0.08.

A word on the fraction unbound: it is the share of the substance not bound to proteins or other matrix.
